The values that follow come from ChEMBL document CHEMBL6096718, “Discovery of Rezatapopt (PC14586), a First-in-Class, Small-Molecule Reactivator of p53 Y220C Mutant in Development” (ACS Med Chem Lett, 2025).

The assay has as its system Cellular tumor antigen p53 (Homo sapiens), P04637 [Y220C]. Kind of assay: Binding affinity to recombinant His-tagged p53 Y220C mutant DNA binding domain (94 to 312 residues) (unknown origin) assessed as induction of biotin-labeled consensus DNA binding by measuring […] concentration required to increase DNA binding incubated for 48 mins by TR-FRET assay. The following applies: filed as activator. On the technique in general: In TR-FRET formats the signal depends on donor and acceptor labels being close together.
As to `COc1cc(S(C)(=O)=O)ccc1NCC#Cc1cc2c(N[C@@H]3CCN(C)C[C@@H]3F)cccc2n1CC(F)(F)F` (racemic), the EC150 was 9 nM.
Turning to `COc1cc(S(C)(=O)=O)ccc1NCC#Cc1cc2c(N[C@@H]3CCN(C)C[C@H]3F)cccc2n1CC(F)(F)F` (racemic), the EC150 was determined as 20 nM.
`COc1cc(S(C)(=O)=O)ccc1NCC#Cc1cc2c(N[C@@H]3CCN(C)C[C@@H]3F)cccc2n1CC(F)(F)F`: the EC150 is 8 nM.
The same measure for `COc1cc(S(C)(=O)=O)ccc1NCC#Cc1cc2c(N[C@H]3CCN(C)C[C@H]3F)cccc2n1CC(F)(F)F`: 20 nM.
